“Also recorded” adds a separate entry of the source.
Key:
[1] = system: infarct region in brain (MCAO); test: PET/SPECT imaging in middle cerebral artery occlusion (MCAO) mouse model of brain stroke; format: in vivo; conditions: for Uptake in stroke regions: MCAO mouse model, FIG. 13, PET or SPECT
Method: Fasted mice are anesthetized with 1.5% isoflurane in a stream of O2:N2 mixture (30:70, 1 L/min) and blanketed in a thermostatic blanket at 37° C. […] The common carotid artery is occluded by a micro-clip. The left ECA is ligated, coagulated, and cut distal to the cranial thyroid artery. A 15 mm monofilament nylon suture (6-0, dia of heat-rounded tip=0.2-0.3 mm) is inserted into the ECA and gently advanced through the ICA until its tip has occluded the origin of the MCA. Correct placement of the suture is indicated by a sudden drop of the local cortical blood flow in the left MCA territory to 10-20% of basal flow. CBF is monitored by non-invasive laser Doppler flowmetry (Moor Instruments). A sustained reduction of >80% is indicative of successful MCAO. The monofilament is secured in place with a ligature and the skin incision is closed. The monofilament suture is left in place for permanent MCAO, but for transient MCAO, the occluding suture is removed after 1 h by anesthetizing the mouse and re-opening the wound.
^18F-FGA was found, in the present work, to accumulate in the brain of a mouse model of brain stroke created by middle cerebral artery occlusion (MCAO). To test ^18F-FGA for imaging infarct in brain, we employed a mouse model of permanent MCAO. PET was performed after 2 h of MCAO surgery. Approximately 1 mCi of ^18F-FGA was injected (i.v.) and a 20 min image was acquired after 1 h of injection. […] We also performed 1 day post-MCAO imaging of brain excised after 2 h of ^18F-FGA injection.

rats = test: ISO-induced myocardial injury in rats (ECG, cardiac troponin I, corticosterone, TTC staining); format: in vivo, Sprague Dawley rats
Method: (§1) Male Sprague Dawley rats (250-300 g) were purchased from Harlan (Indianapolis, Ind., USA), housed in regular light/dark cycles and allowed to acclimatize for at least 5 days prior to the experiments. Myocardial injury was induced by administering a sterile aqueous solution of ISO at a dose rate of 150 mg/kg bodyweight. The drug was intraperitoneally injected on two consecutive days.
Lead 1 ECG of isoflurane-anesthetized rats was recorded by placing negative electrode on the right front paw, positive electrode on the left front paw, and ground lead on to the left hind paw. The electrodes were secured to the lead (CB Sciences C-ISO-255), bioamplifier (ETH-225), and analog to digital converter (iWorx 118) and the signal was recorded using Labscribe 2.0 software (iWorx, Dover, N.H.). Before analysis of raw data, the signal was filtered to eliminate 60 Hz mains frequency.
Blood samples were collected before euthanasia and plasma was separated by centrifugation (5,000 rpm for 5 min). We determined the levels of cardiac TnI (cTnI) in plasma by using a rat-specific enzyme-linked immunoassay kit obtained from Life Diagnostics (West Chester, Pa.). The plasma samples were diluted 1:2 with PBS before estimation.
We measured the concentration of stress hormone corticosterone in undiluted plasma by using an ELISA kit from Cayman Chemicals (Ann Arbor, Mich.). Corticosterone is the only glucocorticoid present in rats.
After the final session of imaging and blood sample collection, the rats were euthanized and their hearts were immediately collected and frozen at −20° C. for 2 h. The hearts were sectioned into 2 mm slices and placed in 1% solution of TTC in PBS at 37° C. with intermittent shaking. After 30 min of staining, the TTC was removed and replaced with 10% buffered fomialin overnight.

[2] = Biodistribution of ^18F-FGA in normal mice; format: in vivo, CD1 mice; conditions: for Biodistribution, Blood / Biodistribution, Bone / Biodistribution, Brain / Biodistribution, Heart / Biodistribution, Kidney / Biodistribution, Liver / Biodistribution, Lung / Biodistribution, Muscle / Biodistribution, Spleen: i.v. 0.1 mCi, decay-corrected, mean ± SD
Method: All animal work described herein was performed according to the NIH Animal Use and Care Guidelines and was approved by the institutional IACUC. Nine male and three female CD1 mice (20-36 g) were obtained from Harlan Laboratories (Indianapolis, Ind.), and housed in a controlled environment with 12 h day/night cycle. The mice were allowed to acclimatize for at least 1 week before inclusion in the study. On the day of imaging, the animals were anesthetized with 2-3% isoflurane in oxygen stream. Approximately 100 μCi of ^18F-FGA was injected intravenously in the tail vein. The animals were placed in a cage with absorbent padding until biodistribution. Briefly, the mice were euthanized after 1 or 3 hours post injection by an over-dose of isoflurane (4%) followed by cervical dislocation. Various organs were excised, washed with saline, weighed, and appropriate tissue samples were counted in an automated gamma counter (Packard Cobra II Auto Gamma, Perkin Elmer, Boston, Mass.). Total blood volume, bone, and muscle mass were estimated as 5.7%, 10% and 40% of body weight, respectively. A diluted sample of injected ^18F-FGA served as a standard for comparison.
Results of a whole body distribution analysis of ^18F-FGA in various organs of normal mice 1 and 3 h after injection are shown in Table 1. Normal healthy mice were injected with ^18F-FGA (0.1 mCi) via the tail vein and the mice were euthanized at 1 h and 3 h post injection. […] All other organs accumulated less than 0.5% of the injected dose/g tissue. The concentration of ^18F-FGA in circulation was also negligible.
We injected 0.1 mCi (50 μl) of ^18F-FGA in normal healthy mice (n=8), and collected organs for counting at 1 h post-injection. The accumulation in the brain was less than about 0.1% and in all major organs was below 0.5% of the injected dose and it cleared via renal system. […] Rapid clearance and absence of accumulation in healthy cerebral tissue indicated effectiveness of ^18F-FGA for clear infarct imaging.

[3] = system: ISO-induced myocardial injury; test: PET/SPECT imaging in rat model of ISO-induced myocardial damage; format: in vivo, Sprague Dawley rats; conditions: for Delineation of ISO-induced myocardial pathology by imaging: control vs ISO-treated rats
Method: as §1
In addition to the post-injury imaging, baseline images were also acquired before inducing ISO-injury. […] All injections were given intravenously in the tail vein of anesthetized (2% isoflurane-oxygen mixture) rats and imaging was performed at indicated times after the injections. Through the imaging period, anesthesia was maintained with a 2% isoflurane-oxygen mixture. For PET, the rats were positioned supine in a gantry of a PET-CT dual modality machine (Gamma Medica Ideas, Northridge, Calif.). A fly-mode CT of thoracic region was acquired before a 20 min list mode PET data acquisition. SPECT imaging was performed on a NanoSPECT machine (Trifoil Imaging, Chatsworth, Calif.) by helical SPECT acquisition of the thoracic region in 24 frames of 60 seconds each. After imaging, the rats were allowed to wake up and kept in their cage until the time of euthanasia.
The acquired PET images was reconstructed by filtered back projection algorithm and fused with the CT to generate a composite PET-CT image. SPECT acquisitions were reconstructed with HiSPECT reconstruction algorithm provided with the system.
Standard uptake value (SUV) was calculated by defining a three-dimensional region of interest (ROI) around the heart using the CT image. Background was determined by placing a spherical ROI at the same level as the 4th sternebrae in the XY plane in the posterior medial area of the left lung. Mean counts per voxel for the heart were normalized to mean background counts per voxel.

[4] = Circulation kinetics of ^18F-FGA in mice; format: in vivo, CD-1 mice; conditions: i.v., elimination phase, 30-180 minute time points
Method: Five male CD-1 mice were injected with 100 μCi of ^18F-FGA intravenously via the tail vein. At 0, 30, 60, 90, 120, and 180 minutes post injection, 25-50 μl of blood was sampled from the retro-orbital sinus. Blood was weighed and counted in an automated gamma counter (Packard Cobra II Auto Gamma, Perkin Elmer, Boston, Mass.). One mouse was excluded from the study based on macroscopic observations about the abnormal kidney morphology upon necropsy.
For statistical comparisons we employed GraphPad Prism 6 Software (GraphPad, La Jolla, Calif.). Two group comparisons were performed using a Student's T Test, comparisons between 3 or more groups were done using one way ANOVA. Pharmacokinetic parameters were calculated from the semi-log plot of time-activity curves using method of residuals.
Circulation kinetics of ^18F-FGA was studied over the course of 3 h. As shown in FIG. 6 (left panel), by 30 min, more than 99% of the injected dose was removed from circulation. […] Pharmacokinetic parameters were calculated from the 30-180 minute time points and are presented in tabular form (FIG. 6, right panel).

[5] = normal healthy mice (n=8), 0.1 mCi, 1 h post-injection
[6] = normal mice, 1 and 3 h after injection

C/C(=N\[O-])[C@@H](C)[N-]CC(C)(C)C[N-][C@H](C)/C(C)=N/O.[O]=[99Tc+3] (racemic) [HMPAO, reference compound]
Uptake in stroke regions [1]: deficient uptake in stroke regions

CC(C)NCC(O)c1ccc(O)c(O)c1 (stereo not shown) [ISO, isoproterenol]
Cardiac troponin in plasma (rats; ISO-treated rats (n=4), 150 mg/kg i.p. on two consecutive days, plasma 24-48 hours after ISO): 63 pg/mL | Plasma level of corticosterone (rats; ISO-treated rats (n=6), 150 mg/kg i.p. on two consecutive days): 34.1 ng/mL | Heart histology (Evans blue, TTC staining) (rats; rats, after two consecutive days of ISO injection): generalized and extensive necrosis | ST duration (ECG) (rats; rats, over the course of ISO treatment): increased | R-R interval (ECG) (rats; rats, same day of ISO treatment): significantly decreased

O=C(O)[C@@H](O)[C@@H](O)[C@H](O)[C@@H]([18F])C(=O)O [^18F-FGA, 2-deoxy-2-[^18F]fluoroglucaric acid]
Accumulation in all major organs [2, 5]: below 0.5 % of the injected dose | Accumulation in the brain [2, 5]: less than 0.1 % of the injected dose | Accumulation in all other organs (other than renal system) [2, 6]: less than 0.5 % of the injected dose/g tissue | Concentration in circulation [2, 6]: negligible | Fate of the majority of injected radioactivity [2, 6]: excreted via the renal system | Biodistribution, Blood ([2]; normal mice, 1 hour (n = 8)): 0.145 ± 0.095 % ID/g tissue | Biodistribution, Bone ([2]; normal mice, 1 hour (n = 8)): 0.321 ± 0.128 % ID/g tissue | Biodistribution, Brain ([2]; normal mice, 1 hour (n = 8)): 0.039 ± 0.027 % ID/g tissue | Biodistribution, Heart ([2]; normal mice, 1 hour (n = 8)): 0.056 ± 0.027 % ID/g tissue | Biodistribution, Kidney ([2]; normal mice, 1 hour (n = 8)): 4.226 ± 3.281 % ID/g tissue | Biodistribution, Liver ([2]; normal mice, 1 hour (n = 8)): 0.417 ± 0.128 % ID/g tissue | Biodistribution, Lung ([2]; normal mice, 1 hour (n = 8)): 0.192 ± 0.087 % ID/g tissue | Biodistribution, Muscle ([2]; normal mice, 1 hour (n = 8)): 0.049 ± 0.025 % ID/g tissue | Biodistribution, Spleen ([2]; normal mice, 1 hour (n = 8)): 0.074 ± 0.036 % ID/g tissue | Biodistribution, Blood ([2]; normal mice, 3 hour (n = 4)): 0.051 ± 0.025 % ID/g tissue | Biodistribution, Bone ([2]; normal mice, 3 hour (n = 4)): 0.727 ± 0.773 % ID/g tissue | Biodistribution, Brain ([2]; normal mice, 3 hour (n = 4)): 0.014 ± 0.007 % ID/g tissue | Biodistribution, Heart ([2]; normal mice, 3 hour (n = 4)): 0.018 ± 0.01 % ID/g tissue | Biodistribution, Kidney ([2]; normal mice, 3 hour (n = 4)): 0.698 ± 0.378 % ID/g tissue | Biodistribution, Liver ([2]; normal mice, 3 hour (n = 4)): 0.087 ± 0.027 % ID/g tissue | Biodistribution, Lung ([2]; normal mice, 3 hour (n = 4)): 0.104 ± 0.073 % ID/g tissue | Biodistribution, Muscle ([2]; normal mice, 3 hour (n = 4)): 0.03 ± 0.018 % ID/g tissue | Biodistribution, Spleen ([2]; normal mice, 3 hour (n = 4)): 0.033 ± 0.015 % ID/g tissue | Accumulation in cardiac tissue of ISO-treated rats ([3]; PET, 1 h post-injection, after two consecutive days of ISO): accumulated large amounts | Time to accumulation in ISO-treated hearts ([3]; PET, ISO-treated rats): ≤ 1 h | Contrast between accumulation in myocardial tissue and non-target tissues ([3]; PET, ISO-treated rats, 4 h post-injection): very pronounced | Uptake in normal (baseline/control) heart ([3]; PET, rats without ISO treatment): negligible uptake; also recorded: no detectable signal | Delineation of ISO-induced myocardial pathology by imaging [3]: clearly diagnosed ISO-induced cardiomyopathy | Ipsilateral vs contralateral accumulation in excised brain ([1]; 1 day post-MCAO, brain excised 2 h after injection): higher accumulation in the ipsilateral side than the contralateral side | Uptake in stroke regions [1]: accumulates in stroke regions of ipsilateral cerebral hemisphere | Accumulation in ipsilateral side of brain ([1]; permanent MCAO, PET after 2 h of MCAO, 1 mCi i.v., image 1 h after injection): central area of ^18F-FGA accumulation | Elimination rate constant [4]: 0.83 h⁻¹ | Half-life [4]: approximately 35 minutes

[C-]#[N+]CC(C)(C)OC.[C-]#[N+]CC(C)(C)OC.[C-]#[N+]CC(C)(C)OC.[C-]#[N+]CC(C)(C)OC.[C-]#[N+]CC(C)(C)OC.[C-]#[N+]CC(C)(C)OC.[Tc] [^99mTc-Sestamibi, ^99mTc-sesta-methoxyisobutylisonitrile, reference compound]
Delineation of ISO-induced myocardial pathology by imaging [3]: unable to delineate ISO-induced myocardial pathology
